# From patent US20230093099A1, “COMPOUNDS AND METHODS OF TREATING CANCERS” (CULLGEN (SHANGHAI), INC., priority 2019, published 2023)
# System: RS4;11 cells
# Assay: Cell viability assay (CellTiter-Glo) in RS4;11 cells
# Format: cell-based
# Conditions: Homo sapiens, 72 h; RS4;11 ALL cells treated for three days; read-out: cell viability inhibition IC50
# Method in brief: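 RS4;11 cells seeded at 5000 per well, exposed for 3 days to 8- or 12-point 3-fold serial dilutions. Viability read by CellTiter-Glo luminescence; IC50 fitted by nonlinear least-squares regression.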
row,SMILES,IC50
1,"CS(=O)(=O)c1ccc(-c2cccc3nc(Nc4ccc(N5CCN(C(=O)CCCCNc6ccc7c(c6)C(=O)N(C6CCC(=O)NC6=O)C7=O)CC5)cc4)nn23)cc1 (stereo not drawn) [JA-196, 2-(2,6-dioxopiperidin-3-yl)-5-((5-(4-(4-((5-(4-(methylsulfonyl)phenyl)-[1,2,4]triazolo[1,5-a]pyridin-2-yl)amino)phenyl)piperazin-1-yl)-5-oxopentyl)amino)isoindoline-1,3-dione]",< 100 nM
2,"Cc1cnc(Nc2ccc(N3CCN(CC(=O)NCCCCCCNc4cccc5c4C(=O)N(C4CCC(=O)NC4=O)C5=O)CC3)cc2)nc1Nc1cccc(S(=O)(=O)NC(C)(C)C)c1 (stereo not drawn) [JA-094, 2-(4-(4-((4-((3-(N-(tert-butyl)sulfamoyl)phenyl)amino)-5-methylpyrimidin-2-yl)amino)phenyl)piperazin-1-yl)-N-(6-((2-(2,6-dioxopiperidin-3-yl)-1,3-dioxoisoindolin-4-yl)amino)hexyl)acetamide]",< 100 nM

# Same assay, conditions: Homo sapiens, 72 h; RS4;11 cells; cell viability, 3 days, CellTiter-Glo; read-out: IC50
row,SMILES,IC50
1,"O=C(CN1CCC(n2cc(-c3cnc4cccc(-c5cc(F)c(CN6CCOCC6)c(F)c5)c4n3)cn2)CC1)NCCOCCOCCOCCOCCNc1cccc2c1C(=O)N(C1CCC(=O)NC1=O)C2=O (stereo not drawn) [JA-142, 2-[4-[4-[8-[3,5-Difluoro-4-(morpholinomethyl)phenyl]quinoxalin-2-yl]pyrazol-1-yl]-1-piperidyl]-N-[2-[2-[2-[2-[2-[[2-(2,6-dioxo-3-piperidyl)-1,3-dioxo-isoindolin-4-yl]amino]ethoxy]ethoxy]ethoxy]ethoxy]ethyl]acetamide]",> 10000 nM
2,"Cc1cnc(Nc2ccc(N3CCN(CC(=O)NCCC(=O)N[C@H](C(=O)N4C[C@H](O)C[C@H]4C(=O)NCc4ccc(-c5scnc5C)cc4)C(C)(C)C)CC3)cc2)nc1Nc1cccc(S(=O)(=O)NC(C)(C)C)c1 [JA-098, (2S,4R)-1-((S)-2-(3-(2-(4-(4-((4-((3-(N-(tert-Butyl)sulfamoyl)phenyl)amino)-5-methylpyrimidin-2-yl)amino)phenyl)piperazin-1-yl)acetamido)propanamido)-3,3-dimethylbutanoyl)-4-hydroxy-N-(4-(4-methylthiazol-5-yl)benzyl)pyrrolidine-2-carboxamide]",> 10000 nM
3,"CS(=O)(=O)c1ccc(-c2cccc3nc(Nc4ccc(N5CCN(C(=O)CCCCC#Cc6ccc7c(c6)CN(C6CCC(=O)NC6=O)C7=O)CC5)cc4)nn23)cc1 (stereo not drawn) [JA-250, 3-(5-(7-(4-(4-((5-(4-(Methylsulfonyl)phenyl)-[1,2,4]triazolo[1,5-a]pyridin-2-yl)amino)phenyl)piperazin-1-yl)-7-oxohept-1-yn-1-yl)-1-oxoisoindolin-2-yl)piperidine-2,6-dione]",181 nM
4,"Cc1cnc(Nc2ccc(N3CCN(C(=O)CCNc4cccc5c4C(=O)N(C4CCC(=O)NC4=O)C5=O)CC3)cc2)nc1Nc1cccc(S(=O)(=O)NC(C)(C)C)c1 (stereo not drawn) [JA-009, N-(tert-Butyl)-3-((2-((4-(4-(3-((2-(2,6-dioxopiperidin-3-yl)-1,3-dioxoisoindolin-4-yl)amino)propanoyl)piperazin-1-yl)phenyl)amino)-5-methylpyrimidin-4-yl)amino)benzenesulfonamide]",2580 nM
5,"Cc1cnc(Nc2ccc(N3CCN(C(=O)COCC(=O)N[C@H](C(=O)N4C[C@H](O)C[C@H]4C(=O)NCc4ccc(-c5scnc5C)cc4)C(C)(C)C)CC3)cc2)nc1Nc1cccc(S(=O)(=O)NC(C)(C)C)c1 [JA-030, (2S,4R)-1-((S)-2-(2-(2-(4-(4-((4-((3-(N-(tert-Butyl)sulfamoyl)phenyl)amino)-5-methylpyrimidin-2-yl)amino)phenyl)piperazin-1-yl)-2-oxoethoxy)acetamido)-3,3-dimethylbutanoyl)-4-hydroxy-N-(4-(4-methylthiazol-5-yl)benzyl)pyrrolidine-2-carboxamide]",> 10000 nM
6,"O=C1CCC(N2Cc3ccc(C#CCCCCC(=O)N4CCC(n5cc(-c6cnc7cccc(-c8cc(F)c(CN9CCOCC9)c(F)c8)c7n6)cn5)CC4)cc3C2=O)C(=O)N1 (stereo not drawn) [JA-259, 3-(6-(7-(4-(4-(8-(3,5-Difluoro-4-(morpholinomethyl)phenyl)quinoxalin-2-yl)-1H-pyrazol-1-yl)piperidin-1-yl)-7-oxohept-1-yn-1-yl)-1-oxoisoindolin-2-yl)piperidine-2,6-dione]",> 10000 nM
7,"O=C1CCC(N2Cc3cc(C#CCCCCC(=O)N4CCC(n5cc(-c6cnc7cccc(-c8cc(F)c(CN9CCOCC9)c(F)c8)c7n6)cn5)CC4)ccc3C2=O)C(=O)N1 (stereo not drawn) [JA-271, 3-(5-(7-(4-(4-(8-(3,5-Difluoro-4-(morpholinomethyl)phenyl)quinoxalin-2-yl)-1H-pyrazol-1-yl)piperidin-1-yl)-7-oxohept-1-yn-1-yl)-1-oxoisoindolin-2-yl)piperidine-2,6-dione]",157 nM
8,"Cc1ncsc1-c1ccc(CNC(=O)[C@@H]2C[C@@H](O)CN2C(=O)[C@@H](NC(=O)CCCC(=O)N2CCN(c3ccc(Nc4nc5cccc(-c6ccc(S(C)(=O)=O)cc6)n5n4)cc3)CC2)C(C)(C)C)cc1 [JA-066, (2S,4R)-1-((S)-3,3-Dimethyl-2-(5-(4-(4-((5-(4-(methylsulfonyl)phenyl)-[1,2,4]triazolo[1,5-a]pyridin-2-yl)amino)phenyl)piperazin-1-yl)-5-oxopentanamido)butanoyl)-4-hydroxy-N-(4-(4-methylthiazol-5-yl)benzyl)pyrrolidine-2-carboxamide]",> 10000 nM
9,"CS(=O)(=O)c1ccc(-c2cccc3nc(Nc4ccc(N5CCN(C(=O)CCCCCNc6cccc7c6C(=O)N(C6CCC(=O)NC6=O)C7=O)CC5)cc4)nn23)cc1 (stereo not drawn) [JA-013, 2-(2,6-Dioxo-piperidin-3-yl)-4-[6-(4-{4-[5-(4-methanesulfonyl-phenyl)-[1,2,4]triazolo[1,5-a]pyridin-2-ylamino]-phenyl}-piperazin-1-yl)-6-oxo-hexylamino]-isoindole-1,3-dione]",> 10000 nM
10,"Cc1cnc(Nc2ccc(N3CCN(C(=O)CCC(=O)N[C@H](C(=O)N4C[C@H](O)C[C@H]4C(=O)NCc4ccc(-c5scnc5C)cc4)C(C)(C)C)CC3)cc2)nc1Nc1cccc(S(=O)(=O)NC(C)(C)C)c1 [JA-022, (2S,4R)-1-((S)-2-(4-(4-(4-((4-((3-(N-(tert-Butyl)sulfamoyl)phenyl)amino)-5-methylpyrimidin-2-yl)amino)phenyl)piperazin-1-yl)-4-oxobutanamido)-3,3-dimethylbutanoyl)-4-hydroxy-N-(4-(4-methylthiazol-5-yl)benzyl)pyrrolidine-2-carboxamide]",> 10000 nM
11,CS(=O)(=O)c1ccc(-c2cccc3nc(Nc4ccc(N5CCN(C(=O)CCOCCOCCNc6ccc7c(c6)C(=O)N(C6CCC(=O)NC6=O)C7=O)CC5)cc4)nn23)cc1 (stereo not drawn) [JA-201],241 nM
12,"Cc1cnc(Nc2ccc(N3CCN(C(=O)COCCOCCOCC(=O)N[C@H](C(=O)N4C[C@H](O)C[C@H]4C(=O)NCc4ccc(-c5scnc5C)cc4)C(C)(C)C)CC3)cc2)nc1Nc1cccc(S(=O)(=O)NC(C)(C)C)c1 [JA-108, (2S,4R)-1-((S)-2-(tert-Butyl)-14-(4-(4-((4-((3-(N-(tert-butyl)sulfamoyl)phenyl)amino)-5-methylpyrimidin-2-yl)amino)phenyl)piperazin-1-yl)-4,14-dioxo-6,9,12-trioxa-3-azatetradecanoyl)-4-hydroxy-N-(4-(4-methylthiazol-5-yl)benzyl)pyrrolidine-2-carboxamide]",> 10000 nM
13,"CS(=O)(=O)c1ccc(-c2cccc3nc(Nc4ccc(N5CCN(C(=O)CCCCNc6ccc7c(c6)C(=O)N(C6CCC(=O)NC6=O)C7=O)CC5)cc4)nn23)cc1 (stereo not drawn) [JA-196, 2-(2,6-dioxopiperidin-3-yl)-5-((5-(4-(4-((5-(4-(methylsulfonyl)phenyl)-[1,2,4]triazolo[1,5-a]pyridin-2-yl)amino)phenyl)piperazin-1-yl)-5-oxopentyl)amino)isoindoline-1,3-dione]",107 nM
14,"O=C1CCC(N2C(=O)c3ccc(CCCCCCCN4CCC(n5cc(-c6cnc7cccc(-c8cc(F)c(CN9CCOCC9)c(F)c8)c7n6)cn5)CC4)cc3C2=O)C(=O)N1 (stereo not drawn) [JA-265, 5-(7-(4-(4-(8-(3,5-Difluoro-4-(morpholinomethyl)phenyl)quinoxalin-2-yl)-1H-pyrazol-1-yl)piperidin-1-yl)heptyl)-2-(2,6-dioxopiperidin-3-yl)isoindoline-1,3-dione]",1350 nM
15,"Cc1cnc(Nc2ccc(N3CCN(CC(=O)NCCCCCCNc4cccc5c4C(=O)N(C4CCC(=O)NC4=O)C5=O)CC3)cc2)nc1Nc1cccc(S(=O)(=O)NC(C)(C)C)c1 (stereo not drawn) [JA-094, 2-(4-(4-((4-((3-(N-(tert-butyl)sulfamoyl)phenyl)amino)-5-methylpyrimidin-2-yl)amino)phenyl)piperazin-1-yl)-N-(6-((2-(2,6-dioxopiperidin-3-yl)-1,3-dioxoisoindolin-4-yl)amino)hexyl)acetamide]",74.4 nM
16,"CS(=O)(=O)c1ccc(-c2cccc3nc(Nc4ccc(N5CCN(C(=O)CCOCCOCCOCCOCCOCCNc6ccc7c(c6)C(=O)N(C6CCC(=O)NC6=O)C7=O)CC5)cc4)nn23)cc1 (stereo not drawn) [JA-193, 2-(2,6-Dioxopiperidin-3-yl)-5-((18-(4-(4-((5-(4-(methylsulfonyl)phenyl)-[1,2,4]triazolo[1,5-a]pyridin-2-yl)amino)phenyl)piperazin-1-yl)-18-oxo-3,6,9,12,15-pentaoxaoctadecyl)amino)isoindoline-1,3-dione]",> 10000 nM
17,"Cc1ncsc1-c1ccc(CNC(=O)[C@@H]2C[C@@H](O)CN2C(=O)[C@@H](NC(=O)COCCNC(=O)CN2CCN(c3ccc(Nc4nc5cccc(-c6ccc(S(C)(=O)=O)cc6)n5n4)cc3)CC2)C(C)(C)C)cc1 [JA-132, (2S,4R)-1-((S)-3,3-Dimethyl-2-(2-(2-(2-(4-(4-((5-(4-(methylsulfonyl)phenyl)-[1,2,4]triazolo[1,5-a]pyridin-2-yl)amino)phenyl)piperazin-1-yl)acetamido)ethoxy)acetamido)butanoyl)-4-hydroxy-N-(4-(4-methylthiazol-5-yl)benzyl)pyrrolidine-2-carboxamide]",> 10000 nM
18,"Cc1ncsc1-c1ccc(CNC(=O)[C@@H]2C[C@@H](O)CN2C(=O)[C@@H](NC(=O)CCCCCCCC(=O)N2CCC(n3cc(-c4cnc5cccc(-c6cc(F)c(CN7CCOCC7)c(F)c6)c5n4)cn3)CC2)C(C)(C)C)cc1 [JA-051, (2S,4R)-1-[(2S)-2-[[9-[4-[4-[8-[3,5-Difluoro-4-(morpholinomethyl)phenyl]quinoxalin-2-yl]pyrazol-1-yl]-1-piperidyl]-9-oxo-nonanoyl]amino]-3,3-dimethyl-butanoyl]-4-hydroxy-N-[[4-(4-methylthiazol-5-yl)phenyl]methyl]pyrrolidine-2-carboxamide]",4640 nM
19,"Cc1ncsc1-c1ccc(CNC(=O)[C@@H]2C[C@@H](O)CN2C(=O)[C@@H](NC(=O)COCCNC(=O)CN2CCC(n3cc(-c4cnc5cccc(-c6cc(F)c(CN7CCOCC7)c(F)c6)c5n4)cn3)CC2)C(C)(C)C)cc1 [JA-153, (2S,4R)-1-((S)-2-(2-(2-(2-(4-(4-(8-(3,5-Difluoro-4-(morpholinomethyl)phenyl)quinoxalin-2-yl)-1H-pyrazol-1-yl)piperidin-1-yl)acetamido)ethoxy)acetamido)-3,3-dimethylbutanoyl)-4-hydroxy-N-(4-(4-methylthiazol-5-yl)benzyl)pyrrolidine-2-carboxamide]",> 10000 nM
